One block for each compound: values may come before it.
Legend:
Test in all cases: Competitive isoTOP-ABPP, cell lysates
Assay type in all cases: binding
[1] = molecular target: GNB2L1 C182 (P63244) (Homo sapiens, UniProt P63244); details: for isoTOP-ABPP ratio (reactivity profile), P63244_C182: 500 μm in-vitro ramos_231
[2] = molecular target: IDH1 C269 (O75874) (Homo sapiens, UniProt O75874); details: for R value (DMSO/fragment): in vitro; for isoTOP-ABPP ratio, O75874_C269: invitro
[3] = molecular target: T1, UBE2S C118 (Q16763) (Homo sapiens, UniProt Q16763)
T1 sequence (Q16763 1-222): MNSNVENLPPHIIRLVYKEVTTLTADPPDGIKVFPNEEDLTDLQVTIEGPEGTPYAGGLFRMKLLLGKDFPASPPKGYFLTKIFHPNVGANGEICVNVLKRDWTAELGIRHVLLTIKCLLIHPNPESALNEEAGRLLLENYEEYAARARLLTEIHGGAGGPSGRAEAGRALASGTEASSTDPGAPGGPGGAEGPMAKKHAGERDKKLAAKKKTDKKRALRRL

[4] = molecular target: T2, USP22 C171 (Q9UPT9) (Homo sapiens, UniProt Q9UPT9)
T2 sequence (Q9UPT9 1-525): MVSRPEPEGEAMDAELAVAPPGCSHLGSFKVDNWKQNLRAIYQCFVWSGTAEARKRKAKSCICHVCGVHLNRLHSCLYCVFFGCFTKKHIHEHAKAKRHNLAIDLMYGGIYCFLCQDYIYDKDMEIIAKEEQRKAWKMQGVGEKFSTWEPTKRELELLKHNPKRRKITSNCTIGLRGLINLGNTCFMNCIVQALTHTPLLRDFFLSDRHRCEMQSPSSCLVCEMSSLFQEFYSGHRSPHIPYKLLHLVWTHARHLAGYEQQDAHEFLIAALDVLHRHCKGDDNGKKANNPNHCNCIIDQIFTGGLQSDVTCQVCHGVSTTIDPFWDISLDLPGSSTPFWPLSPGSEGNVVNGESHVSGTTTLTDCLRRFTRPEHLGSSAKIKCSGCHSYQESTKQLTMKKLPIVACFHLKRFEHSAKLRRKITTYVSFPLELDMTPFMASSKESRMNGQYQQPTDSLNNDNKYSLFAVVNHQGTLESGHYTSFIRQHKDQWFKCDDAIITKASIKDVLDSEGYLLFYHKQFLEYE

[5] = molecular target: ZNF217 C286 (O75362) (Homo sapiens, UniProt O75362)
ZNF217 C286 (O75362), sequence (O75362 whole entry): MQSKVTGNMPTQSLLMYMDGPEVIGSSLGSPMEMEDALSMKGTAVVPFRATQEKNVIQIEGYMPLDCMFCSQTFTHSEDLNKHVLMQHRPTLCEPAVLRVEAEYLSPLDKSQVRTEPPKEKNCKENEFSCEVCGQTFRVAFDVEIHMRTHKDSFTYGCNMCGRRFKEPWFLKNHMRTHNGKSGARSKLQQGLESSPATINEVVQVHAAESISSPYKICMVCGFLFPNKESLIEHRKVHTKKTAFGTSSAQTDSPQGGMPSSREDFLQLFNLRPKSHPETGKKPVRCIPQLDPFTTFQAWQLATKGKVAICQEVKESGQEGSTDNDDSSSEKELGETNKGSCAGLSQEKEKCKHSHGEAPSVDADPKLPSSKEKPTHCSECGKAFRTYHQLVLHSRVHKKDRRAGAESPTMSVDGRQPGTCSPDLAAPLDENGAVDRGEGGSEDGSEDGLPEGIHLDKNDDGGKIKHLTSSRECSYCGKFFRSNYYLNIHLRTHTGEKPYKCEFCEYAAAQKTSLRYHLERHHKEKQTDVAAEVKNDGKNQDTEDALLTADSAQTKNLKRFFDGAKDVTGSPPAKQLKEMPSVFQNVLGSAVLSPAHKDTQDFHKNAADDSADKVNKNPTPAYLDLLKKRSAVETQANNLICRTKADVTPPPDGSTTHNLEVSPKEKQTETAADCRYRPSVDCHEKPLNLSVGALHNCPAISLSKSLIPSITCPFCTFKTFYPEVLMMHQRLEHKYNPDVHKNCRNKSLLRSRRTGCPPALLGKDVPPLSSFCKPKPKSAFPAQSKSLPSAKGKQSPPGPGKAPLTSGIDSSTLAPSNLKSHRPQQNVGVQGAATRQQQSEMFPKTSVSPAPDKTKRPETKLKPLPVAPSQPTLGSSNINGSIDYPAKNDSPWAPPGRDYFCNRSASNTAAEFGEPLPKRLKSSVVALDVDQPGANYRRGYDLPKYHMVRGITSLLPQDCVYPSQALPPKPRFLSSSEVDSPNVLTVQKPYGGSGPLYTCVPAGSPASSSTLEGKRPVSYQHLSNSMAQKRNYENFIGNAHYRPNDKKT

[6] = molecular target: T3, AIP C122 (O00170) (Homo sapiens, UniProt O00170)
T3 sequence (O00170 1-330): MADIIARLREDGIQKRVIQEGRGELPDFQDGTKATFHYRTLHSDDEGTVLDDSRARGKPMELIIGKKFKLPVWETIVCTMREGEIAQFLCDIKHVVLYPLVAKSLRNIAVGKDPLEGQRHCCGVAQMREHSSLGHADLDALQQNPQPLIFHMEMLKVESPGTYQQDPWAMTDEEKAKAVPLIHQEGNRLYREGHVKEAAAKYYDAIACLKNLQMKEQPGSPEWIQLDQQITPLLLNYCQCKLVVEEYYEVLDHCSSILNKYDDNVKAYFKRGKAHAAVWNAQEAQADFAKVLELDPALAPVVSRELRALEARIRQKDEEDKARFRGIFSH

[7] = molecular target: SAMHD1 C522 (Q9Y3Z3) (Homo sapiens, UniProt Q9Y3Z3)
SAMHD1 C522 (Q9Y3Z3), sequence (Q9Y3Z3 whole entry): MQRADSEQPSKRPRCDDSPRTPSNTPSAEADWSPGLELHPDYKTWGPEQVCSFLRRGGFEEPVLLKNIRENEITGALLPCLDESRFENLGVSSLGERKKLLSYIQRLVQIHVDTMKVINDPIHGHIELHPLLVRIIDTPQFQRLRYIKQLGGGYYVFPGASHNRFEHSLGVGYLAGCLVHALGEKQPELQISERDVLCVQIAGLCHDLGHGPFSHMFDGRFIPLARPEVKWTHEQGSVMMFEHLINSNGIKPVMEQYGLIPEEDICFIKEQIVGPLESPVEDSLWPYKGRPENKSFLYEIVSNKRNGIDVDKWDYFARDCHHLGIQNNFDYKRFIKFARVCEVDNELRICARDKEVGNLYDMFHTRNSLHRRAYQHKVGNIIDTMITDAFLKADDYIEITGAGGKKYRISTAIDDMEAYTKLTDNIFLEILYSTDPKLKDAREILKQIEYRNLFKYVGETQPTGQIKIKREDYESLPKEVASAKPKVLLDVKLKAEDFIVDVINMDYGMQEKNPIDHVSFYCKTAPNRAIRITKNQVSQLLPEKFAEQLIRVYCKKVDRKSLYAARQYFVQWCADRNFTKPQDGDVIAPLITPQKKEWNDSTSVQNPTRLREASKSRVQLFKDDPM

[8] = molecular target: GSTP1 C48 (P09211) (Homo sapiens, UniProt P09211)
GSTP1 C48 (P09211), sequence (P09211 whole entry): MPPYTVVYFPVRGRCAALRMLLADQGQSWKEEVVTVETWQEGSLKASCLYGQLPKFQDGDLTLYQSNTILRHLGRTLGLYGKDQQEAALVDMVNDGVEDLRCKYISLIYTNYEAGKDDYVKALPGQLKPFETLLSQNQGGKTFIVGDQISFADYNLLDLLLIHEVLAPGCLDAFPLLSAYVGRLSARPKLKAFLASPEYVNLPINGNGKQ

[9] = molecular target: T4, UCHL3 C95 (P15374) (Homo sapiens, UniProt P15374)
T4 sequence (P15374 1-230): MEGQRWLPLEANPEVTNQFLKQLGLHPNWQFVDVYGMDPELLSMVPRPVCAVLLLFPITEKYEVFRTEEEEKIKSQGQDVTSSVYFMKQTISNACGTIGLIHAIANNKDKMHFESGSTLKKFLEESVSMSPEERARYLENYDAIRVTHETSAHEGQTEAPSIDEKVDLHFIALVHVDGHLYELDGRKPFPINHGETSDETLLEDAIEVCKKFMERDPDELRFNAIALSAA

IDH1 C269 (O75874), sequence (O75874 whole entry, the tested form may be a part): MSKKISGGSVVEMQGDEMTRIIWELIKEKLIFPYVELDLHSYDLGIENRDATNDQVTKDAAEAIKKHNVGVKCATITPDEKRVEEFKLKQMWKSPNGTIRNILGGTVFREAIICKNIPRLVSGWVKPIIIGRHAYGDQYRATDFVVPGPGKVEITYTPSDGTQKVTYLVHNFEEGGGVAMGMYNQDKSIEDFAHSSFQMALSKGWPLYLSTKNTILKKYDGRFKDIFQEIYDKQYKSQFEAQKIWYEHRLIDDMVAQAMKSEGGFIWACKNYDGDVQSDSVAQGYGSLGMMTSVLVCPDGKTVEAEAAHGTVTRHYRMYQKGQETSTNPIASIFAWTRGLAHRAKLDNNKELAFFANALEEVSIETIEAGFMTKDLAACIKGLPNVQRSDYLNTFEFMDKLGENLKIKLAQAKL

- isoTOP-ABPP ratio, P63244_C182 ([1]; 500 μM, invitro, 231): 1.5
- isoTOP-ABPP ratio, P63244_C182 ([1]; 500 μM, invitro, ramos): 1.4
- isoTOP-ABPP ratio, O75874_C269 ([2]; 500 μM, ramos): 0.8
- isoTOP-ABPP ratio, Q16763_C118 ([3]; 500 μM, invitro, 231): 2.8
- isoTOP-ABPP ratio, Q9UPT9_C171 ([4]; 500 μM, invitro, ramos): 20.0
- isoTOP-ABPP ratio, Q9Y3Z3_C522 ([7]; 500 μM, invitro, ramos): 5.4
- isoTOP-ABPP ratio, P09211_C48 ([8]; 500 μM, invitro, 231): 2.2
- isoTOP-ABPP ratio, P09211_C48 ([8]; 500 μM, invitro, ramos): 2.4
- isoTOP-ABPP ratio, P15374_C95 ([9]; 500 μM, invitro, 231): 1.5
- isoTOP-ABPP ratio, P15374_C95 ([9]; 500 μM, invitro, ramos): 1.1
SMILES: C=CC(=O)N(c1ccccc1)c1ccc(Br)cc1 [compound 5]

- isoTOP-ABPP ratio, P63244_C182 ([1]; 500 μM, invitro, 231): 1.0
- isoTOP-ABPP ratio, P63244_C182 ([1]; 500 μM, invitro, ramos): 1.1
- isoTOP-ABPP ratio, O75874_C269 ([2]; 500 μM, 231): 1.1
- isoTOP-ABPP ratio, O75874_C269 ([2]; 500 μM, ramos): 0.7
- isoTOP-ABPP ratio, Q9UPT9_C171 ([4]; 500 μM, invitro, ramos): 8.2
- isoTOP-ABPP ratio O75362_C286 ([5]; 500 μM, invitro, 231): 1.2
- isoTOP-ABPP ratio O75362_C286 ([5]; 500 μM, invitro, ramos): 1.2
- isoTOP-ABPP ratio, O00170_C122 ([6]; 500 μM, invitro, ramos): 2.8
- isoTOP-ABPP ratio, Q9Y3Z3_C522 ([7]; 500 μM, invitro, 231): 2.1
- isoTOP-ABPP ratio, P09211_C48 ([8]; 500 μM, invitro, 231): 1.7
- isoTOP-ABPP ratio, P09211_C48 ([8]; 500 μM, invitro, ramos): 1.1
- isoTOP-ABPP ratio, P15374_C95 ([9]; 500 μM, invitro, 231): 0.8
- isoTOP-ABPP ratio, P15374_C95 ([9]; 500 μM, invitro, ramos): 0.8
SMILES: Cn1cc(S(=O)(=O)N2CCOCC2)cc1C(=O)NC(=O)CCl [compound 11]

- isoTOP-ABPP ratio (reactivity profile), P63244_C182 [1]: 4.6
- isoTOP-ABPP ratio (reactivity profile), O75874_C269 ([2]; 500 μm in-vitro ramos): 1.1
- isoTOP-ABPP ratio (reactivity profile), O75874_C269 ([2]; 500 μm in-vitro ramos_231): 0.7
- isoTOP-ABPP ratio (reactivity profile), Q16763_C118 ([3]; 500 μm in-vitro ramos): 2.4
- isoTOP-ABPP ratio (reactivity profile), Q16763_C118 ([3]; 500 μm in-vitro ramos_231): 1.6
- isoTOP-ABPP ratio (reactivity profile), Q9UPT9_C171 ([4]; 500 μm in-vitro ramos_231): 5.1
- isoTOP-ABPP ratio (reactivity profile), O75362_C286 ([5]; 500 μm in-vitro ramos_231): 20.0
- isoTOP-ABPP ratio (reactivity profile), O00170_C122 ([6]; 500 μm in-vitro ramos): 1.4
- isoTOP-ABPP ratio (reactivity profile), O00170_C122 ([6]; 500 μm in-vitro ramos_231): 0.7
- isoTOP-ABPP ratio (reactivity profile), P09211_C48 ([8]; 500 μm in-vitro ramos): 0.9
- isoTOP-ABPP ratio (reactivity profile), P09211_C48 ([8]; 500 μm in-vitro ramos_231): 0.8
- isoTOP-ABPP ratio (reactivity profile), P15374_C95 ([9]; 500 μm in-vitro ramos): 1.1
- isoTOP-ABPP ratio (reactivity profile), P15374_C95 ([9]; 500 μm in-vitro ramos_231): 0.8
SMILES: N#C/C(=C\c1cc(C(F)(F)F)cc(C(F)(F)F)c1)C(N)=O [compound 23]

Continued, compound first:

SMILES: COc1ccc2c(c1)CCCN2C(=O)CCl [compound 2]
- R value (DMSO/fragment) ([1]; 500 μM, in vitro, MDA-MB-231): 1.2
- R value (DMSO/fragment) ([1]; 500 μM, invitro, ramos): 1.2
- R value (DMSO/fragment) ([2]; 500 μM, MDA-MB-231): 20.0
- R value (DMSO/fragment) ([3]; 500 μM, in vitro, MDA-MB-231): 4.2
- R value (DMSO/fragment) ([3]; 500 μM, invitro, ramos): 6.9
- R value (DMSO/fragment) ([4]; 500 μM, invitro, ramos): 7.1
- R value (DMSO/fragment) ([5]; 500 μM, in vitro, MDA-MB-231): 20.0
- R value (DMSO/fragment) ([5]; 500 μM, invitro, ramos): 20.0
- R value (DMSO/fragment) ([6]; 500 μM, in vitro, MDA-MB-231): 12.5
- R value (DMSO/fragment) ([6]; 500 μM, invitro, ramos): 6.7
- R value (DMSO/fragment) ([7]; 500 μM, invitro, ramos): 4.0
- R value (DMSO/fragment) ([8]; 500 μM, in vitro, MDA-MB-231): 3.1
- R value (DMSO/fragment) ([8]; 500 μM, invitro, ramos): 1.6
- R value (DMSO/fragment) ([9]; 500 μM, invitro, ramos): 1.8

SMILES: COc1ccc(C2CC(c3cccs3)=NN2C(=O)CCl)cc1 (stereo not drawn) [compound 4]
- R value (DMSO/fragment) ([1]; 250 μM, in vitro, MDA-MB-231): 0.9
- R value (DMSO/fragment) ([2]; 250 μM, MDA-MB-231): 1.6
- R value (DMSO/fragment) ([2]; 250 μM, Ramos): 0.6
- R value (DMSO/fragment) ([3]; 250 μM, in vitro, MDA-MB-231): 1.2
- R value (DMSO/fragment) ([4]; 250 μM, in vitro, Ramos): 4.0
- R value (DMSO/fragment) ([5]; 250 μM, in vitro, MDA-MB-231): 1.7
- R value (DMSO/fragment) ([6]; 250 μM, in vitro, MDA-MB-231): 2.5
- R value (DMSO/fragment) ([6]; 250 μM, in vitro, Ramos): 0.3
- R value (DMSO/fragment) ([7]; 250 μM, in vitro, MDA-MB-231): 1.5
- R value (DMSO/fragment) ([8]; 250 μM, in vitro, MDA-MB-231): 3.2
- R value (DMSO/fragment) ([8]; 250 μM, in vitro, Ramos): 0.5
- R value (DMSO/fragment) ([9]; 250 μM, in vitro, Ramos): 0.9

SMILES: O=C(CCl)N1CCOCC1 [compound 22]
- isoTOP-ABPP ratio (reactivity profile), P63244_C182 [1]: 1.6
- isoTOP-ABPP ratio (reactivity profile), O75874_C269 ([2]; 500 μm in-vitro ramos_231): 1.0
- isoTOP-ABPP ratio (reactivity profile), Q16763_C118 ([3]; 500 μm in-vitro ramos): 0.9
- isoTOP-ABPP ratio (reactivity profile), Q9UPT9_C171 ([4]; 500 μm in-vitro ramos): 1.1
- isoTOP-ABPP ratio (reactivity profile), O00170_C122 ([6]; 500 μm in-vitro ramos): 1.1
- isoTOP-ABPP ratio (reactivity profile), O00170_C122 ([6]; 500 μm in-vitro ramos_231): 1.3
- isoTOP-ABPP ratio (reactivity profile), Q9Y3Z3_C522 ([7]; 500 μm in-vitro ramos): 0.8
- isoTOP-ABPP ratio (reactivity profile), P09211_C48 ([8]; 500 μm in-vitro ramos): 0.7
- isoTOP-ABPP ratio (reactivity profile), P09211_C48 ([8]; 500 μm in-vitro ramos_231): 0.9
- isoTOP-ABPP ratio (reactivity profile), P15374_C95 ([9]; 500 μm in-vitro ramos): 0.7
